Columns and labels:
Cyclin T = Cyclin T protein levels, Western blot, MOLT-4 cells; format: cell-based, human; settings: MOLT-4 leukemia cells, 10 μM, 8 h treatment time
Procedure: Compounds 4 and 5 (KI-ARv-03-D09 and -D10) incorporate such bi-aryl extensions and were therefore tested for their ability to degrade CDK9 and/or its associated cyclin T. In addition, the corresponding molecules KB-0742-D01 and -D02 which comprise the […] warhead and bi-aryl extensions were evaluated.

CDK9 [1] = biological target: T1, CDK9 (Homo sapiens, UniProt P50750); assay: CDK9 degradation assay, Western blot, MOLT4 cells; format: cell-based; design: endogenous in cells; host or cells: MOLT4 (MOLT-4); settings: for CDK9 protein levels: MOLT-4 leukemia cells, 8 h treatment time; for reduction of CDK9 protein levels: 1 μM, compared to DMSO and parent compound KI-ARv3; for concentration at which the concentration dependent decrease of CDK9 levels starts: dose range 10 nM-10 μM
Procedure: Efficiencies were measured by monitoring their impact on CDK9 itself as well as downstream targets of CDK9 phosphorylation such as AR and Pol II.

CDK9 [2] = biological target: T1, CDK9; assay: CDK9 degradation assay, Western blot, 22Rv1 cells; format: cell-based; design: endogenous in cells; host or cells: 22Rv1; settings: for reduction of CDK9 levels / degradation of CDK9: 10 nM-10 μM
Procedure: (§1) Compounds were evaluated in ARv7 positive 22Rv1 cells in order to assess their potential to degrade CDK9 and its associated downstream phosphorylation targets Pol II as well as AR and related splice variants (FIGS. 6 and 7).

CDK9 [3] = biological target: T1, CDK9; assay: CDK9 degradation assay, Western blot, MV-4-11 cells; format: cell-based; design: endogenous in cells
Procedure: (§2) FIGS. 8A-C show evaluation of KI-ARv3-D07 and -08 in MV-4-11 (FIG. 8A) and Rh-30 (FIG. 8C) cells as well as side by side comparison of both cell lines (FIG. 8B). […] FIG. 8B treatment time is 8 hr.
(§3) The effect of KI-ARv3-D07 and -08 on impacting CDK9 levels in the additional cell lineages MV-4-11 (leukemia cell line) and the Rh-30 (rhabdomyosarcoma cell line) at 6 h and 8 h treatment times (FIG. 8) was also evaluated. […] In Rh-30 no changes in CDK9 levels were detected at any compound concentration (10 nM, 100 nM, 500 nM, 1 μM, 10 μM) at either 6 h or 8 h treatment time (FIGS. 8B and 8C).

CDK9 [4] = biological target: T1, CDK9; assay: CDK9 degradation assay, Western blot, Rh-30 cells; format: cell-based; design: endogenous in cells; host or cells: 22Rv1; settings: for changes in CDK9 levels: Rh-30 cells, 10 nM, 100 nM, 500 nM, 1 μM, 10 μM, 6 h or 8 h
Procedure: as §2
FIGS. 9A-D show evaluation of KI-ARv3-D11 and -D18 in 22Rv1 (FIG. 9A, 16 h treatment time), MOLT-4 (FIG. 9B, 7 h treatment time), and Rh-30 (FIGS. 9C and 9D, 16 h treatment time) cell lines.
as §3

Pol II = Pol II protein levels, Western blot, 22Rv1 cells; format: cell-based; settings: FIG. 7 (24 hours, 10 nM-10 μM)
Procedure: as §1

AR = AR and AR splice variant protein levels, Western blot, 22Rv1 cells; format: cell-based; settings: FIG. 7 (24 hours, 10 nM-10 μM)
Procedure: as §1

[5] = MOLT4 cells, 1 μM and 5 μM, 6 hours, compared to DMSO
[6] = MOLT4 cells, low dose 1 μM, 24 hours

T1 sequence (P50750 whole entry): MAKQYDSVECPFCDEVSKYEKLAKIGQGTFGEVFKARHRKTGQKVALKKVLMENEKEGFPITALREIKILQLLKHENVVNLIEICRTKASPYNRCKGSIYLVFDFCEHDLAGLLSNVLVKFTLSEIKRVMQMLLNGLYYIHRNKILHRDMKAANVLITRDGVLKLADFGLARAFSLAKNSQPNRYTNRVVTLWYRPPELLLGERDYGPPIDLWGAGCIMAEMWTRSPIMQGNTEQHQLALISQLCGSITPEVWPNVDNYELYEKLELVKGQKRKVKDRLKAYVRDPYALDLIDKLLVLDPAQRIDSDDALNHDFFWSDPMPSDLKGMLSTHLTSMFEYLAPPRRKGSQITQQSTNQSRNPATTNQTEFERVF
T1 sequence (O60563 whole entry partner): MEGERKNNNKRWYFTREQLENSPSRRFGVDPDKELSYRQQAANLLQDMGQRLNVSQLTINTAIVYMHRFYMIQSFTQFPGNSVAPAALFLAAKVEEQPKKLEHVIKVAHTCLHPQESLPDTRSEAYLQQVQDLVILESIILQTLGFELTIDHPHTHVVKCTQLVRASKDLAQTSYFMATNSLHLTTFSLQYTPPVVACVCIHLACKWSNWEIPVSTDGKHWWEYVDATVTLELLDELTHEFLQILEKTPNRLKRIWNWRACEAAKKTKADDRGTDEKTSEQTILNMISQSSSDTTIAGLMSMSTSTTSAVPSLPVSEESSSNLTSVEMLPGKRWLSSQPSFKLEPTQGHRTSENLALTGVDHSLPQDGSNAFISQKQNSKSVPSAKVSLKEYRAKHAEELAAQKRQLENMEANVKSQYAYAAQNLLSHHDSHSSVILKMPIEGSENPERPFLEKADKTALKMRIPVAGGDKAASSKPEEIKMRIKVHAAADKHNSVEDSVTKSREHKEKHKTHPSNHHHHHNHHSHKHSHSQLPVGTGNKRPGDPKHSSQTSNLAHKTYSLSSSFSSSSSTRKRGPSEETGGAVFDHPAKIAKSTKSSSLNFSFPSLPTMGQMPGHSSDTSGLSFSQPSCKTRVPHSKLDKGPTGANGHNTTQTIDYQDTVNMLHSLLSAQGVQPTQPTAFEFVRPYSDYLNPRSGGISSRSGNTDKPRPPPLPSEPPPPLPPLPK

SMILES	Cyclin T protein levels (Cyclin T)	CDK9 protein levels (CDK9 [1]; 10 μM)	reduction of CDK9 levels (CDK9 [2]; 6 hours)	degradation of CDK9 (CDK9 [2]; 24 hours)	CDK9 degradation (CDK9 [1]; [5])	reduction of CDK9 protein levels (CDK9 [1]; MOLT4 cells, 6 hours)	concentration at which the concentration dependent decrease of CDK9 levels starts (CDK9 [1]; MOLT4 cells, 6 hours) [nM]	CDK9 degradation (CDK9 [1]; [6])	changes in CDK9 levels (CDK9 [4])	further results
CCC(CC)c1cc(N[C@H]2CC[C@H](NC(=O)c3ccc(-c4ccc(CN)cc4)cc3)C2)n2nccc2n1 [KB-0742-D02, 4′-(aminomethyl)-N-((1S,3S)-3-((5-(pentan-3-yl)pyrazolo[1,5-a]pyrimidin-7-yl)amino)cyclopentyl)-[1,1′-biphenyl]-4-carboxamide]	reduction in protein levels	reduction in protein levels								
CCCc1cc(N[C@@H]2CC[C@@H](NC(=O)CCCCCCCCCNc3cccc4c3C(=O)N(C3CCC(=O)NC3=O)C4=O)C2)n2nccc2n1 (stereo partly drawn) [KI-ARv3-D07, 10-((2-(2,6-Dioxopiperidin-3-yl)-1,3-dioxoisoindolin-4-yl)amino)-N-((1R,3R)-3-((5-propylpyrazolo[1,5-a]pyrimidin-7-yl)amino)cyclopentyl)decanamide]			no significant reduction	not able to facilitate degradation of CDK9	CDK9 degradation was observed	approximately 80%	100	reduced	no changes	changes in CDK9 levels (CDK9 [3]; 6 h and 8 h, FIGS. 8A and 8B): did not lead to significant changes; degradation of CDK9 (CDK9 [1]; MOLT4 cells, 24 hours, 10 μM): not demonstrated; hook effect on CDK9 degradation (CDK9 [1]; MOLT4 cells, high dose 5 μM, 24 hours): hook effect
CCCc1cc(N[C@@H]2CC[C@@H](NC(=O)c3ccc(-c4ccc(CNc5cccc6c5C(=O)N(C5CCC(=O)NC5=O)C6=O)cc4)cc3)C2)n2nccc2n1 (stereo partly drawn) [KI-ARv3-D08, 4′-(((2-(2,6-dioxopiperidin-3-yl)-1,3-dioxoisoindolin-4-yl)amino)methyl)-N-((1R,3R)-3-((5-propylpyrazolo[1,5-a]pyrimidin-7-yl)amino)cyclopentyl)-[1,1′-biphenyl]-4-carboxamide]			subtle reduction	significant CDK9 degradation	CDK9 degradation was observed	approximately 80%	100	reduced	no changes	global Pol II protein levels (Pol II): no observed effect; global AR protein levels (AR): no observed effect; concentration at which reduction in CDK9 protein levels starts (CDK9 [2]; 6 hours): 500 nM; concentration at which significant CDK9 degradation starts (CDK9 [2]; 24 hours): 100 nM; concentration at which reduction of CDK9 levels starts (CDK9 [3]; 6 h and 8 h treatment time): 350 nM; reduction of CDK9 levels (CDK9 [3]; 6 h and 8 h treatment time): approximately 60%; rescue experiments using proteasome inhibitor MG132 (CDK9 [3]; FIG. 8A): reversible and proteasome dependent; CDK9 degradation (CDK9 [1]; MOLT4 cells, 24 hours, across the whole range 10 nM-10 μM): approx. 80%
CCCc1cc(NC2CCC(NC(=O)c3ccc(-c4ccc(CN)cc4)cc3)C2)n2nccc2n1 (stereo not drawn) [KI-ARv3-D10, 4′-(aminomethyl)-N-(3-((5-propylpyrazolo[1,5-a]pyrimidin-7-yl)amino)cyclopentyl)-[1,1′-biphenyl]-4-carboxamide]	reduction in protein levels	reduction in protein levels								
CCCc1cc(N[C@@H]2CC[C@@H](NC(=O)c3ccc(-c4ccc(CN[C@H](C(=O)N5C[C@H](O)C[C@H]5C(=O)NCc5ccc(-c6scnc6C)cc5)C(C)(C)C)cc4)cc3)C2)n2nccc2n1 [KI-ARv3-D18, (2S,4R)-1-((S)-3,3-dimethyl-2-(((4′-(((1R,3R)-3-((5-propylpyrazolo[1,5-a]pyrimidin-7-yl)amino)cyclopentyl)carbamoyl)-[1,1′-biphenyl]-4-yl)methyl)amino)butanoyl)-4-hydroxy-N-(4-(4-methylthiazol-5-yl)benzyl)pyrrolidine-2-carboxamide]										reduction of CDK9 levels (CDK9 [4]; 25 nM, FIG. 9D (Rh-30, 16 h treatment time)): approximately 80%
